Legend:
[1] = test system: mTORC1 over mTORC2; assay: mTORC1 selectivity over mTORC2 at 24 hrs (Western blot based pS6K1 and pAKT assay); type: cell-based; details: 24 hrs
Experimental: Western Blot Based pS6K1 and pAKT Assay at 24 and 48 Hour Timepoints
1. Seed six well plate with 500,000 PC3 cells per well and incubate for 20˜24 hour.
2. Add compounds into the cell plate. Incubate for 24 to 48 hours.
4. Plate is placed on ice and the media is removed via aspiration. The wells are washed with 1 mL of 1× PBS and then fully aspirated.
5. 110 μL of 1% Triton Lysis Buffer is added and each well is scraped vigorously.
6. Cell homogenates are transferred to 1.5 mL eppendorf tubes on ice and spun down at 4° C. for 10 minutes at 10,000 rpm.
9. The membranes were washed 3× with TBS-T with a 5 minute incubation between each wash then incubated with secondary antibody (LiCor IRDye 800 Donkey Anti Rabbit) for at least 30 minutes.
10. The membranes were washed 3× with TBS-T with a 5 minute incubation between each wash.
11. The gels were then incubated for 5 minutes with PBS at room temperature then imaged using a Li-Cor.
“N/A” stands for “not assayed.”

[2] = test system: pS6K1 (p-p70 S6 Kinase (Thr389)) in MCF-7 cells; assay: AlphaLISA Ultra pS6K1 Assay; type: cell-based; details: Homo sapiens, 1.5 h; MCF7 cells, 90 min
Experimental: AlphaLISA Ultra pS6K1 Assay
1. Seed MCF-7 cells in Corning 3701 plate and incubate for 20˜24 hour. 12,000˜16,000 cells will be seeded in 36 μL medium per well.
2. Change the culture medium with fresh medium and incubate for another 2 hours.
3. Add 12 μL (4×) compounds into the cell plate by HAMILTON. Final DMSO concentration is 0.5%. Incubate for 90 minutes.
4. Aspirate […] by HAMILTON, 10 μL rest per well.
5. Add 10 μL 2× lysis buffer using HAMILTON; total volume in wells is 20 μL. Allow cells to shake for 30 min. Cover plate by plastic foil and store plate at −80° C. up to analysis.
6. Thaw cell lysate at RT and transfer 10 μL lysate to assay plate (Optiplate-384).
7. Add 5 μL acceptor beads into assay plate and incubation for 2 hours
8. Add 5 μL donor beads and incubation for 2 hours
9. Count the plate by EnSpire Multimode Plate Reader

| Compound | mTORC1 selective @ 24 hrs [1] | IC50 [2] [nM] |
| --- | --- | --- |
| CO[C@@H]1C[C@H](C[C@@H](C)[C@@H]2CC(=O)[C@H](C)/C=C(\C)[C@@H](O)[C@@H](OC)C(=O)[C@H](C)C[C@H](C)/C=C/C=C/C=C(\C)[C@H](OCC3COCCOCCOCCOCCO3)C[C@@H]3CC[C@@H](C)[C@@](O)(O3)C(=O)C(=O)N3CCCC[C@H]3C(=O)O2)CC[C@H]1O (stereo partly drawn) [I-107, (30E,32E,34E,35E,38R,39S,40R,41R,43S,45S,47R,48S,50R,51R,60R)-50, 60-dihydroxy-48-[(1R)-2-[(1S,3R,4R)-4-hydroxy-3-methoxy-cyclohexyl]-1-methyl-ethyl]-51-methoxy-38, 39,40,41,52,53-hexamethyl-47-(1,4,7,10,13-pentaoxacyclopentadec-2-ylmethoxy)-75, 76-dioxa-61-azatricyclohexatriaconta-30,32,34(52),35(53)-tetraene-54,55,56,57,58-pentone] | YES | ≥ 100 |
| CO[C@@H]1C[C@H](C[C@@H](C)[C@@H]2CC(=O)[C@H](C)/C=C(\C)[C@@H](O)[C@@H](OC)C(=O)[C@H](C)C[C@H](C)/C=C/C=C/C=C(\C)[C@@H](OCC3COCCOCCOCCOCCO3)C[C@@H]3CC[C@@H](C)[C@@](O)(O3)C(=O)C(=O)N3CCCC[C@H]3C(=O)O2)CC[C@H]1O (stereo partly drawn) [I-108, (30E, 32E,34E,35E,38R,39S,40R,41R,43S,45S,47S,48S,50R,51R,60R)-50, 60-dihydroxy-48-[(1R)-2-[(1S,3R,4R)-4-hydroxy-3-methoxy-cyclohexyl]-1-methyl-ethyl]-51-methoxy-38, 39,40,41,52,53-hexamethyl-47-(1,4,7,10,13-pentaoxacyclopentadec-2-ylmethoxy)-75, 76-dioxa-61-azatricyclohexatriaconta-30, 32,34(52),35(53)-tetraene-54,55,56,57,58-pentone] | YES | 0.1 to 1 |
| CO[C@@H]1C[C@H](C[C@@H](C)[C@@H]2CC(=O)[C@H](C)/C=C(\C)[C@@H](O)[C@@H](OC)C(=O)[C@H](C)C[C@H](C)/C=C/C=C/C=C(\C)[C@H](OCCOCCOCCO)C[C@@H]3CC[C@@H](C)[C@@](O)(O3)C(=O)C(=O)N3CCCC[C@H]3C(=O)O2)CC[C@H]1OCCO [I-109, (21E,23E,25E,26E,36R,37S,38R,39R,41S,43S,45R,46S,47R,48R,57R)-47, 57-dihydroxy-45-[2-[2-(2-hydroxyethoxy)ethoxy]ethoxy]-46-[(1R)-2-[(1S,3R, 4R)-4-(2-hydroxyethoxy)-3-methoxy-cyclohexyl]-1-methyl-ethyl]-48-methoxy-36,37,38,39,49,50-hexamethyl-68, 69-dioxa-58-azatricyclohexatriaconta-21,23,25(49),26(50)-tetraene-51,52,53,54,55-pentone] | YES | 1 to 10 |
| CO[C@@H]1C[C@H](C[C@@H](C)[C@@H]2CC(=O)[C@H](C)/C=C(\C)[C@@H](O)[C@@H](OC)C(=O)[C@H](C)C[C@H](C)/C=C/C=C/C=C(\C)[C@H](OCC3COCCOCCOCCO3)C[C@@H]3CC[C@@H](C)[C@@](O)(O3)C(=O)C(=O)N3CCCC[C@H]3C(=O)O2)CC[C@H]1O (stereo partly drawn) [I-111, (28E,30E,32E,33E,36R,37S,38R,39R,41S,43S,45R,46S,48R,49R,58R)-48, 58-dihydroxy-46-[(1R)-2-[(1S,3R,4R)-4-hydroxy-3-methoxy-cyclohexyl]-1-methyl-ethyl]-49-methoxy-36, 37,38,39,50,51-hexamethyl-45-(1,4,7,10-tetraoxacyclododec-2-ylmethoxy)-72,73-dioxa-59-azatricyclohexatriaconta-28, 30,32(50),33(51)-tetraene-52,53,54,55,56-pentone] | YES | 1 to 10 |
| CO[C@@H]1C[C@H](C[C@@H](C)[C@@H]2CC(=O)[C@H](C)/C=C(\C)[C@@H](O)[C@@H](OC)C(=O)[C@H](C)C[C@H](C)/C=C/C=C/C=C(\C)[C@@H](OCC3COCCOCCOCCO3)C[C@@H]3CC[C@@H](C)[C@@](O)(O3)C(=O)C(=O)N3CCCC[C@H]3C(=O)O2)CC[C@H]1O (stereo partly drawn) [I-112, (28E,30E,32E,33E,36R,37S,38R,39R,41S,43S,45S,46S,48R,49R,58R)-48, 58-dihydroxy-46-[(1R)-2-[(1S,3R,4R)-4-hydroxy-3-methoxy-cyclohexyl]-1-methyl-ethyl]-49-methoxy-36, 37,38,39,50,51-hexamethyl-45-(1,4,7,10-tetraoxacyclododec-2-ylmethoxy)-72, 73-dioxa-59-azatricyclohexatriaconta-28,30,32(50),33(51)-tetraene-52, 53,54,55,56-pentone] | YES | 0.1 to 1 |
| CO[C@@H]1C[C@H](C[C@@H](C)[C@@H]2CC(=O)[C@H](C)/C=C(\C)[C@@H](O)[C@@H](OC)C(=O)[C@H](C)C[C@H](C)/C=C/C=C/C=C(\C)[C@H](OCCOCCOCCOCCO)C[C@@H]3CC[C@@H](C)[C@@](O)(O3)C(=O)C(=O)N3CCCC[C@H]3C(=O)O2)CC[C@H]1OCCO [I-114, (21E,23E,25E,26E,38R,39S,40R,41R,43S,45S,47R,48S,49R,50R,59R)-49, 59-dihydroxy-47-[2-[2-[2-(2-hydroxyethoxy)ethoxy]ethoxy]ethoxy]-48-[(1R)-2-[(1S,3R, 4R)-4-(2-hydroxyethoxy)-3-methoxy-cyclohexyl]-1-methyl-ethyl]-50-methoxy-38,39,40,41,51, 52-hexamethyl-70,71-dioxa-60-azatricyclohexatriaconta-21,23,25(51),26(52)-tetraene-53, 54,55,56,57-pentone] | YES | 1 to 10 |
| CO[C@@H]1C[C@H](C[C@@H](C)[C@@H]2CC(=O)[C@H](C)/C=C(\C)[C@@H](O)[C@@H](OC)C(=O)[C@H](C)C[C@H](C)/C=C/C=C/C=C(\C)[C@H](OCCOCCO)C[C@@H]3CC[C@@H](C)[C@@](O)(O3)C(=O)C(=O)N3CCCC[C@H]3C(=O)O2)CC[C@H]1OCCO [I-116, (21E,23E,25E,26E,34R,35S,36R,37R,39S,41S,43R,44S,45R,46R,55R)-45, 55-dihydroxy-43-[2-(2-hydroxyethoxy)ethoxy]-44-[(1R)-2-[(1S,3R, 4R)-4-(2-hydroxyethoxy)-3-methoxy-cyclohexyl]-1-methyl-ethyl]-46-methoxy-34,35,36,37,47,48-hexamethyl-66,67-dioxa-56-azatricyclohexatriaconta-21, 23,25(47),26(48)-tetraene-49,50,51,52,53-pentone] | YES | 0.1 to 1 |
| COCCOCCO[C@@H]1C[C@@H]2CC[C@@H](C)[C@@](O)(O2)C(=O)C(=O)N2CCCC[C@H]2C(=O)O[C@H]([C@H](C)C[C@@H]2CC[C@@H](O)[C@H](OC)C2)CC(=O)[C@H](C)/C=C(\C)[C@@H](O)[C@@H](OC)C(=O)[C@H](C)C[C@H](C)/C=C/C=C/C=C/1C [I-119, (22E,24E,26E,27E,33R,34S,35R,36R,38S,40S,43S,44R,45R,54R)-44,54-dihydroxy-43-[(1R)-2-[(1S, 3R,4R)-4-hydroxy-3-methoxy-cyclohexyl]-1-methyl-ethyl]-45-methoxy-42-[R-2-(2-methoxyethoxy)ethoxy]-33, 34,35,36,46,47-hexamethyl-64,65-dioxa-55-azatricyclohexatriaconta-22, 24,26(46),27(47)-tetraene-48,49,50,51,52-pentone] | YES | < 0.1 |
